# Assay results taken from patent US20100173888A1 (Pfizer Inc, priority 2008, published 2010).
# Counter-ions that a name gives are not always drawn.
# Target: human recombinant H-PGDS (Homo sapiens, UniProt O60760)
# Test: Fluorescence intensity h-PGDS TBA enzyme assay (PGH2 depletion, MDA/TBA fluorescence)
# Type: biochemical
# Details: 1:175,000 human recombinant H-PGDS, 42 second reaction, 3-fold serial dilutions, highest concentration typically 1 μM
# Procedure, shortened: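 Recombinant human H-PGDS preincubated with inhibitor 10 min at room temperature in pH 8.0 Tris, MgCl2, IgG, 2.5 mM glutathione, 0.5% DMSO. Reaction with 5.0 μM PGH2 stopped at 42 s with FeCl2/citric acid; MDA–TBA fluorescence (ex 530/em 565 nm) read after 70° C. IC50 by 4-parameter fit, 11 concentrations.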
# Sequence of human recombinant H-PGDS (O60760 whole entry): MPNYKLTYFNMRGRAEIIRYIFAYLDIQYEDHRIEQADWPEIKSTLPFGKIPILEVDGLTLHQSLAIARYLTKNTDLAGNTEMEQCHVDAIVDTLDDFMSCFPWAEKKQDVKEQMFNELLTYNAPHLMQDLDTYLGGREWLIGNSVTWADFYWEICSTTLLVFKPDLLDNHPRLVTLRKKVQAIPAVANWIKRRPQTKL
row,Compound,IC50
1,"CN(C)C(=O)[C@H]1CC[C@@H](NC(=O)c2ccc(-c3cccc(F)c3)nc2)C1 [Example 165, N-[(1R,3S)-3-Dimethylcarbamoyl-cyclopentyl]-6-(3-fluorophenyl)nicotinamide]",16.9 nM
2,"CC(C)(O)[C@H]1CC[C@@H](NC(=O)c2ccc(-c3cccc(F)c3)nc2)C1 [Example 166, 6-(3-Fluorophenyl)-N-[(1R,3S)-3-(1-hydroxy-1-methylethyl)cyclopentyl]nicotinamide]",35.5 nM
3,"CN(C)CCNC(=O)[C@@H]1CC[C@H](NC(=O)c2ccc(-c3cccc(F)c3)nc2)C1 [Example 167, N-[(1S,3R)-3-{[2-(Dimethylamino)ethyl]carbamoyl}cyclopentyl]-6-(3-fluorophenyl)nicotinamide]",28.5 nM
4,"O=C(N[C@H]1CC[C@@H](C(=O)N2CCC(CCO)CC2)C1)c1ccc(-c2cccc(F)c2)nc1 [Example 168, 6-(3-Fluorophenyl)-N-[(1S,3R)-3-{(4-(2-hydroxyethyl)piperidin-1-yl]carbonyl}cyclopentyl]nicotinamide]",4.4 nM
5,"COCCNC(=O)[C@@H]1CC[C@H](NC(=O)c2ccc(-c3cccc(F)c3)nc2)C1 [Example 169, 6-(3-Fluorophenyl)-N-{(1S,3R)-3-[(2-methoxyethyl)carbamoyl]cyclopentyl}nicotinamide]",15.1 nM
6,"O=C(N[C@H]1CC[C@@H](C(=O)N2CCOCC2)C1)c1ccc(-c2cccc(F)c2)nc1 [Example 170, 6-(3-Fluorophenyl)-N-[(1S,3R)-3-(morpholin-4-ylcarbonyl)cyclopentyl]nicotinamide]",4.3 nM
7,"CC(C)(O)CNC(=O)[C@@H]1CC[C@H](NC(=O)c2ccc(-c3cccc(F)c3)nc2)C1 [Example 171, 6-(3-Fluorophenyl)-N-{(1S,3R)-3-[(2-hydroxy-2-methylpropyl)carbamoyl]cyclopentyl}nicotinamide]",6.3 nM
8,"CC(C)(CCO)NC(=O)[C@@H]1CC[C@H](NC(=O)c2ccc(-c3cccc(F)c3)nc2)C1 [Example 172, 6-(3-Fluorophenyl)-N-{(1S,3R)-3-[(3-hydroxy-1,1-dimethylpropyl)carbamoyl]cyclopentyl}nicotinamide]",6.4 nM
9,"CN1CCN(C(=O)[C@@H]2CC[C@H](NC(=O)c3ccc(-c4cccc(F)c4)nc3)C2)CC1=O [Example 173, 6-(3-Fluorophenyl)-N-{(1S,3R)-3-[(4-methyl-3-oxopiperazin-1-yl)carbonyl]cyclopentyl}nicotinamide]",21.6 nM
10,"CN1CCC(NC(=O)[C@@H]2CC[C@H](NC(=O)c3ccc(-c4cccc(F)c4)nc3)C2)CC1 [Example 174, 6-(3-Fluorophenyl)-N-{(1S,3R)-3-[(1-methylpiperidin-4-yl)carbamoyl]cyclopentyl}nicotinamide]",1860 nM
11,"NC(=O)[C@@H]1CC[C@H](NC(=O)c2ccc(-c3cccc(F)c3)nc2)C1 [Example 175, N-[(1S,3R)-3-Carbamoylcyclopentyl]-6-(3-fluorophenyl)nicotinamide]",20.2 nM
12,"O=C(N[C@H]1CC[C@@H](C(=O)N2CCNCC2)C1)c1ccc(-c2cccc(F)c2)nc1 [Example 176, 6-(3-Fluorophenyl)-N-[(1S,3R)-3-(piperazin-1-ylcarbonyl)cyclopentyl]nicotinamide]",9 nM
13,"NC1CCN(C(=O)[C@@H]2CC[C@H](NC(=O)c3ccc(-c4cccc(F)c4)nc3)C2)CC1 [Example 177, N-{(1S,3R)-3-[(4-Aminopiperidin-1-yl)carbonyl]cyclopentyl}-6-(3-fluorophenyl)nicotinamide]",21.4 nM
14,"O=C(N[C@@H]1CC[C@H](C(=O)N2CCOCC2)C1)c1ccc(-c2cccc(F)c2)nc1 [Example 179, 6-(3-Fluorophenyl)-N-[(1R,3S)-3-(morpholin-4-ylcarbonyl)cyclopentyl]nicotinamide]",5.6 nM
15,"O=C(N[C@@H]1CC[C@H](C(=O)N2CC[C@@H](F)C2)C1)c1ccc(-c2cccc(F)c2)nc1 [Example 180, 6-(3-Fluorophenyl)-N-[(1R,3S)-3-{[(3R)-3-fluoropyrrolidin-1-yl]carbonyl}cyclopentyl]nicotinamide]",8.9 nM
16,"O=C(N[C@@H]1CC[C@H](C(=O)N2CC[C@H](F)C2)C1)c1ccc(-c2cccc(F)c2)nc1 [Example 181, 6-(3-Fluorophenyl)-N-[(1R,3S)-3-{[(3S)-3-fluoropyrrolidin-1-yl]carbonyl}cyclopentyl]nicotinamide]",5.8 nM
17,"CN1CCN(C(=O)[C@H]2CC[C@@H](NC(=O)c3ccc(-c4cccc(F)c4)nc3)C2)CC1=O [Example 182, 6-(3-Fluorophenyl)-N-[(1R,3S)-3-[(4-methyl-3-oxopiperazin-1-yl)carbonyl]cyclopentyl}nicotinamide]",17.8 nM
18,CN(C)CCNC(=O)[C@H]1CC[C@@H](NC(=O)c2ccc(-c3cccc(F)c3)nc2)C1 [Example 183],75.2 nM
19,O=C(N[C@@H]1CC[C@H](C(=O)N2CCN(CCO)CC2)C1)c1ccc(-c2cccc(F)c2)nc1 [Example 184],20.3 nM
20,COCCNC(=O)[C@H]1CC[C@@H](NC(=O)c2ccc(-c3cccc(F)c3)nc2)C1 [Example 185],25.4 nM
21,"NC(=O)[C@H]1CC[C@@H](NC(=O)c2ccc(-c3cccc(F)c3)nc2)C1 [Example 186, N-[(1R,3S)-3-Carbamoylcyclopentyl]-6-(3-fluorophenyl)nicotinamide]",23.9 nM
22,NC1CCN(C(=O)[C@H]2CC[C@@H](NC(=O)c3ccc(-c4cccc(F)c4)nc3)C2)CC1 [Example 187],30.7 nM
23,C[C@@H](CO)NC(=O)[C@H]1CCC[C@@H](NC(=O)c2ccc(-c3cccc(F)c3)nc2)C1 [Example 188],17.1 nM
24,"N[C@@H]1[C@H]2CN(C(=O)[C@H]3CCC[C@@H](NC(=O)c4ccc(-c5cccc(F)c5)nc4)C3)C[C@@H]12 [Example 190, N-cis-3-{[(1R,5S,6S)-6-Amino-3-azabicyclo[3.1.0]hex-3-yl]carbonyl}cyclohexyl]-6-(3-fluorophenyl)nicotinamide hydrochloride]",17.5 nM
25,C[C@@H](CO)NC(=O)[C@H]1CCC[C@@H](NC(=O)c2ccc(-c3cccc(F)c3)nc2)C1 [Example 194],14.7 nM
26,CCC(O)CNC(=O)[C@H]1CCC[C@@H](NC(=O)c2ccc(-c3cccc(F)c3)nc2)C1 (stereo partly drawn) [Example 197],10.2 nM
27,"O=C(N[C@H]1CC[C@H](C(=O)NC2CCNCC2)CC1)c1ccc(-c2cccc(F)c2)nc1 [Example 201, 6-(3-Fluorophenyl)-N-[trans-4-(piperidin-4-ylcarbamoyl)cyclohexyl]nicotinamide]",31 nM
28,"C[C@H](O)C(=O)N[C@@H]1CCC[C@H](NC(=O)c2ccc(-c3cccc(F)c3)nc2)C1 [Example 206, 6-(3-Fluorophenyl)-N-{cis-3-{[(2S)-2-hydroxypropanoyl]amino}cyclohexyl]nicotinamide]",13.5 nM
29,"N[C@@H]1[C@H]2CN(C(=O)[C@H]3CC[C@H](NC(=O)c4ccc(-c5cccc(F)c5)nc4)CC3)C[C@@H]12 [Example 210, N-(trans-4-{[(1R,5S,6S)-6-Amino-3-azabicyclo[3.1.0]hex-3-yl]carbonyl}cyclohexyl)-6-(3-fluorophenyl)nicotinamide]",9.6 nM
30,"CN(C(=O)[C@H]1CC[C@H](NC(=O)c2ccc(-c3cccc(F)c3)nc2)CC1)C1CCNCC1 [Example 211, 6-(3-Fluorophenyl)-N-{trans-4-[methyl(piperidin-4-yl)carbamoyl]cyclohexyl}nicotinamide]",13 nM
